Results: patent publication US10654884B2 (Vitae Pharmaceuticals, Inc., priority 2014, dated 2020)
Read-outs that look alike come from different tables or passages of the source.

Target: T1, human CD73 (Homo sapiens, UniProt P21589)
T1 construct: purchased R&D Systems 5795-EN-010
T1 sequence (P21589 27-549): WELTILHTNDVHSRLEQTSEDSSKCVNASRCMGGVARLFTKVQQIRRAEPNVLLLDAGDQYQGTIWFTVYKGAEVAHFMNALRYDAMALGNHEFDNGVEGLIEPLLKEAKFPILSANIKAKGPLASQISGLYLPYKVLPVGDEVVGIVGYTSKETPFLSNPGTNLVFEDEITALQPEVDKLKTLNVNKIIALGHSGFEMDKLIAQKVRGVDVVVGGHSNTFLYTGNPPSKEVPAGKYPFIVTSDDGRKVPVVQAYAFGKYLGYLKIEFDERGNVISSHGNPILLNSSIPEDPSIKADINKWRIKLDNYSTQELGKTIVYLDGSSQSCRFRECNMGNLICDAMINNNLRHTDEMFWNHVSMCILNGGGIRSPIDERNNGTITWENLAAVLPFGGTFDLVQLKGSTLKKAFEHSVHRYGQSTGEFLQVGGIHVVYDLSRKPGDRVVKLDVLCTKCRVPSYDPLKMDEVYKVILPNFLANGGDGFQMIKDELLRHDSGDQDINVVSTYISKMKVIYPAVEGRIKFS
Assay: Inhibition of 5′-Nucleotidase Activity of CD73 (Assay 1)
Type: biochemical
Conditions: 50 μM CMP, 20 min at RT, malachite green readout
Protocol: Inhibition of 5′-Nucleotidase Activity of CD73 (Assay 1)
Compounds of the present invention were tested for the ability to inhibit CD73 enzyme activity. Tested compounds were dissolved in DMSO (50× final concentration), and 3.2 μL of the solutions added to 96-well polystyrene plates. To these wells were added, 100 μL of human CD73 (R&D Systems Cat. No. 5795-EN-010) and 57 μL of cytidine-5′-monophosphate (CMP) solutions in assay buffer (25 mM Tris-HCl, pH 7.4, 0.005% Brij-35) were added to achieve final concentrations in the assay of 4 ng/ml CD73 and 50 μM of CMP. The assay mixture was incubated for 20 min at RT. The reaction was stopped by addition of 40 μL of malachite green reagent which was prepared by mixing together 10 ml 2M H2SO4, 2.5 ml of 15% ammonium molybdate and 0.2 ml of 11% Tween-20. The mixture was agitated vigorously for 10 min at RT, and absorbance at 620 nm was determined on a microplate spectrophotometer. […] The IC50 values were derived using a non-linear 4 parameter logistic model (XLFit software, IDBS) and correspond to the inflection points on dose-response curves.

[1] = human CD73 4 ng/ml, read-out: Assay 1: IC50, inhibition of 5′-nucleotidase activity of CD73
[2] = Assay 1: IC50, inhibition of 5′-nucleotidase activity of CD73, human CD73 4 ng/ml

Row | Compound | IC50 [1] [nM] | IC50 [2] [nM]
1 | CCOC(=O)[C@@H](OC[C@H]1O[C@@H](n2ccc(=O)n(C)c2=O)[C@H](O)[C@@H]1O)P(=O)(O)O (single isomer, unassigned) [Example 30a] | > 1000 | 
2 | CCNC(=O)C(OC[C@H]1O[C@@H](n2ccc(=O)n(C)c2=O)[C@H](O)[C@@H]1O)P(=O)(O)O (stereo partly drawn) [Example 32, (1-(((2R,3S,4R,5R)-3,4-dihydroxy-5-(3-methyl-2,4-dioxo-3,4-dihydropyrimidin-1(2H)-yl)tetrahydrofuran-2-yl)methoxy)-2-(ethylamino)-2-oxoethyl)phosphonic Acid] | > 1000 | 
3 | CCNC(=O)C(OC[C@H]1C[C@@H](n2cnc3c(NCC)ncnc32)[C@H](O)[C@@H]1O)P(=O)(O)O (stereo partly drawn) [Example 75, (2-(ethylamino)-1-(((1R,2R,3S,4R)-4-(6-(ethylamino)-9H-purin-9-yl)-2,3-dihydroxycyclopentyl)methoxy)-2-oxoethyl)phosphonic Acid] | > 1000 | 
4 | CCOC(=O)[C@@H](OC[C@H]1C[C@@H](n2cnc3cccc(C#N)c3c2=O)[C@H](O)[C@@H]1O)P(=O)(O)O (single isomer, unassigned) [Example 73a] | > 1000 | 
5 | CS(=O)(=O)C(OC[C@H]1O[C@@H](n2cnc3c(N)nc(Cl)nc32)[C@H](O)[C@@H]1O)P(=O)(O)O (single isomer, unassigned) [Example 10a] | > 1000 | 
6 | Nc1ncnc2c1ncn2[C@@H]1O[C@H](COC(C(=O)O)C(=O)O)[C@@H](O)[C@H]1O [Example 8, 2-(((2R,3S,4R,5R)-5-(6-amino-9H-purin-9-yl)-3,4-dihydroxytetrahydrofuran-2-yl)methoxy)malonic acid] | > 1000 | 
7 | COC(=O)C(SC[C@H]1O[C@@H](n2cnc3c(N)ncnc32)[C@H](O)[C@@H]1O)P(=O)(O)O (stereo partly drawn) [Example 56, (1-((((2S,3S,4R,5R)-5-(6-amino-9H-purin-9-yl)-3,4-dihydroxytetrahydrofuran-2-yl)methyl)thio)-2-methoxy-2-oxoethyl)phosphonic Acid] | > 1000 | 
8 | CCOC(=O)[C@@H](OC[C@H]1O[C@@H](n2cnc3c(N)nc(-c4ccccc4)nc32)[C@H](O)[C@@H]1O)P(=O)(O)O (single isomer, unassigned) [Example 40a] | < 100 | 
9 | CCNc1nc(Cl)nc2c1ncn2[C@@H]1O[C@H](CO[C@@](C)(C(=O)OCC)P(=O)(O)OCC)[C@@H](O)[C@H]1O (single isomer, unassigned) [Example 80] |  | > 1000
10 | CC(C)CS(=O)(=O)[C@@H](OC[C@H]1O[C@@H](n2cnc3c(N)nc(Cl)nc32)[C@H](O)[C@@H]1O)P(=O)(O)O (single isomer, unassigned) [Example 13a] | > 1000 | 
11 | CC(C)Nc1ncnc2c1ncn2[C@@H]1O[C@H](COC(C(=O)O)P(=O)(O)O)[C@@H](O)[C@H]1O (stereo partly drawn) [Example 64, 2-(((2R,3S,4R,5R)-3,4-dihydroxy-5-(6-(isopropylamino)-9H-purin-9-yl)tetrahydrofuran-2-yl)methoxy)-2-phosphonoacetic acid] | > 1000 | 
12 | CCOC(=O)[C@@H](OC[C@H]1O[C@@H](n2cnc3c(N)nc(C4NCCO4)nc32)[C@H](O)[C@@H]1O)P(=O)(O)O (single isomer, unassigned) [Example 51b] | > 1000 | 
13 | CCCS(=O)(=O)[C@@H](OC[C@H]1O[C@@H](n2cnc3c(N)nc(Cl)nc32)[C@H](O)[C@@H]1O)P(=O)(O)O (single isomer, unassigned) [Example 12a] | > 1000 | 
14 | CCOC(=O)C(OC[C@H]1O[C@@H](n2cnc3cc(Cl)c(Cl)cc32)[C@H](O)[C@@H]1O)P(=O)(O)O (single isomer, unassigned) [Example 81] | > 1000 | 
15 | CCOC(=O)C(OC[C@H]1O[C@@H](n2cnc3ccc(Cl)nc32)[C@H](O)[C@@H]1O)P(=O)(O)O (single isomer, unassigned) [Example 87a] | > 1000 | 
16 | CC(C)(C)OC(=O)[C@H](OC[C@H]1O[C@@H](n2cnc3c(N)nc(CN)nc32)[C@H](O)[C@@H]1O)P(=O)(O)O (single isomer, unassigned) [Example 55] | > 1000 | 
17 | CCOC(=O)[C@@H](OC[C@H]1O[C@@H](n2cnc3c(N)nc(CC(C)C)nc32)[C@H](O)[C@@H]1O)P(=O)(O)O (single isomer, unassigned) [Example 46a] | > 1000 | 

Row | Compound | IC50 [1] [nM] | IC50 [2] [nM]
18 | CC(C)(C)OC(=O)[C@@H](OC[C@H]1O[C@@H](n2cnc3c(N)nc(CN)nc32)[C@H](O)[C@@H]1O)P(=O)(O)O (single isomer, unassigned) [Example 55a] | > 1000 | 
19 | CCOC(=O)C(OC[C@H]1O[C@@H](n2cnc3cc(Cl)c(Cl)cc32)[C@H](O)[C@@H]1O)P(=O)(O)O (single isomer, unassigned) [Example 81a] | > 1000 | 
20 | CCOC(=O)[C@@H](OC[C@H]1C[C@@H](n2cnc3cccc(Cl)c3c2=O)[C@H](O)[C@@H]1O)P(=O)(O)O (single isomer, unassigned) [Example 70a] | > 1000 | 
21 | CCOC(=O)[C@@H](OC[C@H]1C[C@@H](n2cnc3cccc(Br)c3c2=O)[C@H](O)[C@@H]1O)P(=O)(O)O (single isomer, unassigned) [Example 72a] | > 1000 | 
22 | CNC(=O)C(OC[C@H]1O[C@@H](n2ccc(=O)n(C)c2=O)[C@H](O)[C@@H]1O)P(=O)(O)O (stereo partly drawn) [Example 31, (1-(((2R,3S,4R,5R)-3,4-dihydroxy-5-(3-methyl-2,4-dioxo-3,4-dihydropyrimidin-1(2H)-yl)tetrahydrofuran-2-yl)methoxy)-2-(methylamino)-2-oxoethyl)phosphonic Acid] | > 1000 | 
23 | CCOC(=O)[C@@H](OC[C@H]1O[C@@H](n2cnc3c(N)nc(C(F)(F)F)nc32)[C@H](O)[C@@H]1O)P(=O)(O)O (single isomer, unassigned) [Example 42a] | > 1000 | 
24 | CCNc1nc(Cl)nc2c1ncn2[C@@H]1O[C@H](CO[C@](C)(C(=O)OCC)P(=O)(O)OCC)[C@@H](O)[C@H]1O (single isomer, unassigned) [Example 80a] |  | > 1000
25 | CCOC(=O)[C@@H](OC[C@H]1O[C@@H](n2cnc3c(N)nc(C4CC4)nc32)[C@H](O)[C@@H]1O)P(=O)(O)O (single isomer, unassigned) [Example 50a] | > 1000 | 
26 | Nc1ncnc2c1ncn2[C@@H]1O[C@H](CO[C@H](CO)P(=O)(O)O)[C@@H](O)[C@H]1O (single isomer, unassigned) [Example 57a] | > 1000 | 
27 | Nc1ncnc2c1ncn2[C@@H]1O[C@H](COC(C(=O)NO)P(=O)(O)O)[C@@H](O)[C@H]1O (stereo partly drawn) [Example 35, (1-(((2R,3S,4R,5R)-5-(6-amino-9H-purin-9-yl)-3,4-dihydroxytetrahydrofuran-2-yl)methoxy)-2-(hydroxyamino)-2-oxoethyl)phosphonic Acid] | > 1000 | 
28 | CCOC(=O)[C@@](CC(=O)O)(OC[C@H]1O[C@@H](n2cnc3c(N)nc(F)nc32)[C@H](O)[C@@H]1O)P(=O)(O)O (single isomer, unassigned) [Example 79a] | 100 to 1000 | 
29 | CCOC(=O)[C@@H](OC[C@@H]1O[C@H](n2cnc3c(N)nc(C)nc32)[C@@H](O)[C@H]1O)P(=O)(O)O (single isomer, unassigned) [Example 37a] | > 1000 | 
30 | CCOC(=O)[C@@H](OC[C@H]1O[C@@H](n2cnc3c(N)nc(-c4cc(F)cc(F)c4)nc32)[C@H](O)[C@@H]1O)P(=O)(O)O (single isomer, unassigned) [Example 41a] | > 1000 | 
31 | O=C(O)C(OC[C@H]1C[C@@H](n2cnc3cccc(Cl)c3c2=O)[C@H](O)[C@@H]1O)P(=O)(O)O (stereo partly drawn) [Example 71, 2-(((1R,2R,3S,4R)-4-(5-chloro-4-oxoquinazolin-3(4H)-yl)-2,3-dihydroxycyclopentyl)methoxy)-2-phosphonoacetic acid] | > 1000 | 
32 | Cn1c(=O)ccn([C@@H]2O[C@H](CO[C@@H](C(=O)O)P(=O)(O)O)[C@@H](O)[C@H]2O)c1=O (single isomer, unassigned) [Example 60] | > 1000 | 
33 | Cn1c(=O)ccn([C@@H]2O[C@H](CO[C@H](C(=O)O)P(=O)(O)O)[C@@H](O)[C@H]2O)c1=O (single isomer, unassigned) [Example 60a] | > 1000 | 
34 | O=C(O)C(OC[C@H]1C[C@@H](n2cnc3cccc(Cl)c3c2=O)[C@H](O)[C@@H]1O)C(=O)O [Example 74, 2-(((1R,2R,3S,4R)-4-(5-chloro-4-oxoquinazolin-3(4H)-yl)-2,3-dihydroxycyclopentyl)methoxy)malonic acid] | > 1000 | 
